As usually defined, the EC50 is the concentration at which the effect is half-maximal.

Consider 3 molecules from patent US12139520B2 (priority 2020, dated 2024).

Bridge positions count the residues as written; N and C are the ends. Peptide text beside a SMILES is read from it.

For the assay, the target named is T1, hAMY3 receptor (Homo sapiens, UniProt O60896+P30988).
T1 sequence (P30988 25-474): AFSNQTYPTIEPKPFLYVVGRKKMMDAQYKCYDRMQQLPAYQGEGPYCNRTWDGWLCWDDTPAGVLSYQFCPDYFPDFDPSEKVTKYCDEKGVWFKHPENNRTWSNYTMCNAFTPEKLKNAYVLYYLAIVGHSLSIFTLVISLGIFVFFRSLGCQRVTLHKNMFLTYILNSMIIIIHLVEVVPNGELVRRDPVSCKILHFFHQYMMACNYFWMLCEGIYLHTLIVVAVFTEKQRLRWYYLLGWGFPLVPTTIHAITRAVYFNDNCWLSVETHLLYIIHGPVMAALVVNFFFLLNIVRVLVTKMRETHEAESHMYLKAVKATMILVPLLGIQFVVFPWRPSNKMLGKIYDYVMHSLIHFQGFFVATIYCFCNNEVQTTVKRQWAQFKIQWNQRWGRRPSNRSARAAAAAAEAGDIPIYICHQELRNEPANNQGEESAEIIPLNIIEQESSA
T1 sequence (O60896 24-148 partner): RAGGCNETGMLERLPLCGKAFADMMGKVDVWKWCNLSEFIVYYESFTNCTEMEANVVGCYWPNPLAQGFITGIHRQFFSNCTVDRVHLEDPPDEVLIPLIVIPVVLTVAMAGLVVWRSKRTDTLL
The assay is described as follows: cAMP assay for in vitro receptor activation, hAMY3-R. Type of assay: cell-based. The following applies: cAMP assay, hAMY3 receptor; read-out: hAMY3R EC50. In short, it runs like this:
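Thawed cells from a sub-cloned monoclonal hAMY3-overexpressing line are plated in DPBS containing 0.05% casein and 0.5 mM IBMX. Test compounds are added immediately at graded doses for 30 min at room temperature. Reagents for cAMP detection are then added, and TR-FRET is recorded after one hour.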
In general terms: Cyclic AMP is a second messenger, typically raised through Gs and lowered through Gi signalling.
Take `CC[C@H](C)[C@H](NC(=O)[C@H](CCCCN)NC(=O)[C@@H](NC(=O)[C@H](CCCNC(=N)N)NC(=O)[C@@H]1CCCN1C(=O)[C@H](C)NC(=O)[C@@H](NC(=O)[C@H](CC(N)=O)NC(=O)[C@H](CC(=O)O)NC(=O)[C@H](CCCCN)NC(=O)[C@H](CC(=O)O)NC(=O)[C@H](CCCCN)NC(=O)[C@H](CC(=O)O)NC(=O)[C@@H](NC(=O)[C@H](Cc1ccccc1)NC(=O)[C@H](CCC(N)=O)NC(=O)[C@H](Cc1ccc(O)cc1)NC(=O)[C@H](CC(C)C)NC(=O)[C@H](Cc1ccccc1)NC(=O)[C@H](Cc1c[nH]cn1)NC(=O)[C@H](C)NC(=O)[C@H](CC(C)C)NC(=O)[C@H](CCCNC(=N)N)NC(=O)[C@H](CCC(N)=O)NC(=O)[C@@H](NC(=O)[C@@H](NC(=O)[C@@H]1CSSC[C@H](NC(=O)CN)C(=O)N[C@@H](CCCNC(=N)N)C(=O)N[C@@H](Cc2ccccc2)C(=O)NCC(=O)N[C@@H]([C@@H](C)O)C(=O)N1)[C@@H](C)O)C(C)C)[C@@H](C)O)C(C)C)[C@@H](C)O)C(=O)NCC(=O)N1CCC[C@H]1C(=O)N[C@@H](CCC(N)=O)C(=O)NCC(=O)N[C@@H](Cc1ccc(O)cc1)C(N)=O` [compound 365] (H-GCRFGTCTVQRLAHFLYQFTDKDKDNVAPRTKIGPQGY-NH2; disulfide 2-7): the EC50 was found to be 0.012 nM.

In the case of `CC[C@H](C)[C@H](NC(=O)[C@H](CCCCN)NC(=O)[C@@H](NC(=O)[C@H](CCCNC(=N)N)NC(=O)[C@@H]1CCCN1C(=O)[C@H](C)NC(=O)[C@@H](NC(=O)[C@H](CC(N)=O)NC(=O)[C@H](CC(=O)O)NC(=O)[C@H](CCCCN)NC(=O)[C@H](CC(=O)O)NC(=O)[C@H](CCCCN)NC(=O)[C@H](CC(=O)O)NC(=O)[C@@H](NC(=O)[C@H](Cc1ccccc1)NC(=O)[C@H](CCC(N)=O)NC(=O)[C@H](Cc1ccc(O)cc1)NC(=O)[C@@H](NC(=O)[C@H](CCC(N)=O)NC(=O)[C@H](Cc1c[nH]cn1)NC(=O)[C@H](C)NC(=O)[C@H](CC(C)C)NC(=O)[C@H](CCCNC(=N)N)NC(=O)[C@H](CCC(N)=O)NC(=O)[C@@H](NC(=O)[C@@H](NC(=O)[C@@H]1CSSC[C@H](NC(=O)CN)C(=O)N[C@@H](CCCNC(=N)N)C(=O)N[C@@H](Cc2ccccc2)C(=O)NCC(=O)N[C@@H]([C@@H](C)O)C(=O)N1)[C@@H](C)O)C(C)C)[C@@H](C)CC)[C@@H](C)O)C(C)C)[C@@H](C)O)C(=O)NCC(=O)N1CCC[C@H]1C(=O)N[C@@H](CC(N)=O)C(=O)NCC(=O)N[C@@H](Cc1ccc(O)cc1)C(N)=O` [compound 367] (H-GCRFGTCTVQRLAHQIYQFTDKDKDNVAPRTKIGPNGY-NH2; disulfide 2-7; N-terminus assumed), the EC50 was 0.014 nM.

Regarding `CC[C@H](C)[C@H](NC(=O)[C@H](CCC(N)=O)NC(=O)[C@H](Cc1c[nH]cn1)NC(=O)[C@H](C)NC(=O)[C@H](CC(C)C)NC(=O)[C@H](CCCNC(=N)N)NC(=O)[C@H](CCC(N)=O)NC(=O)[C@@H](NC(=O)[C@@H](NC(=O)[C@@H]1CSSC[C@H](NC(=O)CN)C(=O)N[C@@H](CCCNC(=N)N)C(=O)N[C@@H](Cc2ccccc2)C(=O)NCC(=O)N[C@@H]([C@@H](C)O)C(=O)N1)[C@@H](C)O)C(C)C)C(=O)N[C@@H](Cc1ccc(O)cc1)C(=O)N[C@@H](CCC(N)=O)C(=O)N[C@@H](Cc1ccccc1)C(=O)N[C@H](C(=O)N[C@@H](CC(=O)O)C(=O)N[C@@H](CCCCN)C(=O)N[C@@H](CC(=O)O)C(=O)N[C@@H](CCCCN)C(=O)N[C@@H](CC(=O)O)C(=O)N[C@@H](CC(N)=O)C(=O)N[C@H](C(=O)N[C@@H](C)C(=O)N1CCC[C@H]1C(=O)N[C@@H](CCCNC(=N)N)C(=O)N[C@H](C(=O)N[C@@H](CCCCN)C(=O)N[C@H](C(=O)NCC(=O)N1CCC[C@H]1C(=O)N[C@@H](CCC(N)=O)C(=O)NCC(=O)N[C@@H](Cc1ccc(O)cc1)C(N)=O)C(C)C)[C@@H](C)O)C(C)C)[C@@H](C)O` [compound 368] (H-GCRFGTCTVQRLAHQIYQFTDKDKDNVAPRTKVGPQGY-NH2; disulfide 2-7; N-terminus assumed), the EC50 came to 0.015 nM.
